Source: patent US4387100A, “Substituted phenoxy-aminopropanol derivatives” (Hoffmann-La Roche Inc., priority 1980, dated 1983)
Like-named read-outs stand apart in the source and are kept apart here.

Legend:
β1-adrenoceptors = molecular target: T1, β1-adrenoceptors (Rattus norvegicus, UniProt P18090); test: 50% reduction in isoprenaline-induced tachycardia (β1-blocking activity) in rats, i.v.; format: in vivo; settings: iv, read-out: ED50 (HR)
T1 construct: this activity is measured in rats by determining the dosage; from tissue; host or cells: living rat, i.v. dosing; read-out heart rate (isoprenaline-induced tachycardia)
T1 sequence (P18090 whole entry): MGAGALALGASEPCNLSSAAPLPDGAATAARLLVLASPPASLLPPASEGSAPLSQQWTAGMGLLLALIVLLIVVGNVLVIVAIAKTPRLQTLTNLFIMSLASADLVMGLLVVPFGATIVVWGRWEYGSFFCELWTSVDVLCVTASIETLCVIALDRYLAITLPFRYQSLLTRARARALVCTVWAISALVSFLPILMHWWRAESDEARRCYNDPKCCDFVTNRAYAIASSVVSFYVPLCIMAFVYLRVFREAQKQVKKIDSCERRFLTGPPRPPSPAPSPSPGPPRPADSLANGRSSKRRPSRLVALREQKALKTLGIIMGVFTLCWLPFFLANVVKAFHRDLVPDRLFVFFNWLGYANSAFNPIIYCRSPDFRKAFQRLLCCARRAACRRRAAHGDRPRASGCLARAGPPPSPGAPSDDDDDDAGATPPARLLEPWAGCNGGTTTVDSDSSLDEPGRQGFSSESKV

β2-adrenoceptors = molecular target: T2, β2-adrenoceptors (Rattus norvegicus, UniProt P10608); test: 50% reduction in isoprenaline-induced depressor responses (β2-blocking activity) in rats, i.v.; format: in vivo; settings: iv, dosage for 50% reduction in isoprenaline-induced depressor responses
T2 construct: this activity is measured in rats by determining the dosage; from tissue; host or cells: living rat, i.v. dosing; read-out blood pressure (isoprenaline-induced depressor response)
T2 sequence (P10608 whole entry): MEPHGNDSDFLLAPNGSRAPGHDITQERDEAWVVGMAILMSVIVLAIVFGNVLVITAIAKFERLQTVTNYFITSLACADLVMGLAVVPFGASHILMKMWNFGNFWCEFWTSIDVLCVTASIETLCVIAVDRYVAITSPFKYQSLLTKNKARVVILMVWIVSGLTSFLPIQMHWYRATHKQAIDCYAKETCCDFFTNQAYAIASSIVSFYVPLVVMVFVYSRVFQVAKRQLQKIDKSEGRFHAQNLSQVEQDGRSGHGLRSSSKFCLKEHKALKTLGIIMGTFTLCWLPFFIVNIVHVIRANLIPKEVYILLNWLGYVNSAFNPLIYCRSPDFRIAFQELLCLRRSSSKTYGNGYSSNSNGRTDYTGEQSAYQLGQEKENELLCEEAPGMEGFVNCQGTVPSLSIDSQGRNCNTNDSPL

[1] = rats, i.v., dosage for 50% reduction in isoprenaline-induced tachycardia

Structure (SMILES) | ED50 (β1-adrenoceptors; [1]) [mg/kg] | ED50 (β2-adrenoceptors) [mg/kg] | ED50 (β1-adrenoceptors) [mg/kg]
CC(C)NCC(O)COc1ccc(OCCn2cccn2)cc1 (stereo not drawn) [A] | 0.05 | 6.5 | –
CC(C)NCC(O)COc1ccc(CC(N)=O)cc1 (stereo not drawn) [Atenolol, atenolol, reference compound] | – | – | 0.091

Continued, in another order:

ED50 (β1-adrenoceptors; [1]) [mg/kg] | ED50 (β2-adrenoceptors) [mg/kg] | Structure (SMILES) | ED50 (β1-adrenoceptors) [mg/kg]
0.011 | > 2 | CC(C)NCC(O)COc1ccc(OCn2nccn2)cc1 (stereo not drawn) [C] | –
0.014 | > 2 | CC(C)NCC(O)COc1ccc(OCCn2nccn2)cc1 (stereo not drawn) [D] | –
0.004 | 2.43 | CC(C)NCC(O)COc1ccc(OCn2cc(Cl)cn2)cc1 (stereo not drawn) [B] | –
